From patent EP4813993A1, “COMPOUND, PREPARATION METHOD THEREFOR, AND USE THEREOF” (Sichuan Kelun Pharmaceutical Research Institute Co., Ltd., priority 2023, dated 2025)

Biological target: T1, Nav1.8 channels (Homo sapiens, UniProt Q9Y5Y9)
T1 construct: expressed in transfected cells
Test: Manual patch-clamp, current of stably overexpressed Nav1.8 channels (resting state voltage program)
Format: cell-based
Conditions: read-out: Inhibition rate %; for inhibition at 0.01 µM: concentration of 10 nM; for inhibition at 0.001 µM: concentration of 1 nM
Description: Experimental Example 1: Effects of test substances on current of stably overexpressed Nav1.8 channels monitored via manual patch-clamp technique
Test compounds were dissolved in dimethyl sulfoxide (DMSO).
The extracellular fluid was as follows: 140 mM NaCl, 3.5 mM KCl, 1 mM MgCl2•6H2O, 2 mM CaCl2•2H2O, 10 mM D-Glucose, 10 mM HEPES, 1.25 mM NaH2PO4•2H2O; the pH was adjusted to 7.4 with NaOH. The intracellular fluid was as follows: 50 mM CsCl, 10 mM NaCl, 10 mM HEPES, 60 mM CsF, 20 mM EGTA; the pH was adjusted to 7.2 with CsOH.
2. Experimental materials and instruments
• 1) patch-clamp amplifier: EPC 10 (HEKA) • 2) micromanipulator: MP225 (Sutter Instrument) • 3) inverted microscope: MF53 (Mshot) • 4) micropipette puller: P97 (Sutter Instrument) • 5) capillary glass tube: BF150-86-10 (Sutter Instrument)
3. Experimental procedures
• 1) After the compounds were prepared into solutions with specified concentrations, the solutions were sequentially added to the pipeline of the drug delivery system and labeled. • 2) The cell climbing coverslip was placed in the recording chamber, the appropriate cells were selected under the inverted microscope, and the position of the drug delivery tip was adjusted. • 3) A capillary glass tube was pulled into a suitable recording electrode using the micropipette puller, and then the electrode filled with the intracellular fluid was mounted in the microelectrode holder. The micromanipulator was adjusted under the inverted microscope to allow the recording electrode to contact the cell, and negative pressure was applied to the electrode to form a high-resistance seal. At this time, fast capacitance compensation was performed, and then the application of negative pressure was continued to break the cell membrane, forming a whole-cell recording mode. Finally, slow capacitance compensation was performed, and related parameters were recorded. • 4) After the cell current stabilized, administration was started. Each concentration of the drug was applied for five minutes or until the current stabilized before proceeding to monitor the next concentration. The drug solutions were administered via gravity-fed delivery, flowing through the recording chamber to act on the cells in an ascending order of concentration (from low to high). A peristaltic pump was employed for solution exchange in the recording process.
4 Test voltage program (resting state) and results
After the formation of the whole-cell seal, the cell voltage was clamped at -120 mV, followed by depolarization to 0 mV using a square-wave pulse with a duration of 50 ms to elicit Nav1.8 currents. This procedure was repeated every 20 s to monitor the maximum current induced by the square wave. After the current stabilized, the test compounds were administered. Once the response stabilized, the intensity of the current block was calculated.

T1 sequence (Q9Y5Y9 whole entry): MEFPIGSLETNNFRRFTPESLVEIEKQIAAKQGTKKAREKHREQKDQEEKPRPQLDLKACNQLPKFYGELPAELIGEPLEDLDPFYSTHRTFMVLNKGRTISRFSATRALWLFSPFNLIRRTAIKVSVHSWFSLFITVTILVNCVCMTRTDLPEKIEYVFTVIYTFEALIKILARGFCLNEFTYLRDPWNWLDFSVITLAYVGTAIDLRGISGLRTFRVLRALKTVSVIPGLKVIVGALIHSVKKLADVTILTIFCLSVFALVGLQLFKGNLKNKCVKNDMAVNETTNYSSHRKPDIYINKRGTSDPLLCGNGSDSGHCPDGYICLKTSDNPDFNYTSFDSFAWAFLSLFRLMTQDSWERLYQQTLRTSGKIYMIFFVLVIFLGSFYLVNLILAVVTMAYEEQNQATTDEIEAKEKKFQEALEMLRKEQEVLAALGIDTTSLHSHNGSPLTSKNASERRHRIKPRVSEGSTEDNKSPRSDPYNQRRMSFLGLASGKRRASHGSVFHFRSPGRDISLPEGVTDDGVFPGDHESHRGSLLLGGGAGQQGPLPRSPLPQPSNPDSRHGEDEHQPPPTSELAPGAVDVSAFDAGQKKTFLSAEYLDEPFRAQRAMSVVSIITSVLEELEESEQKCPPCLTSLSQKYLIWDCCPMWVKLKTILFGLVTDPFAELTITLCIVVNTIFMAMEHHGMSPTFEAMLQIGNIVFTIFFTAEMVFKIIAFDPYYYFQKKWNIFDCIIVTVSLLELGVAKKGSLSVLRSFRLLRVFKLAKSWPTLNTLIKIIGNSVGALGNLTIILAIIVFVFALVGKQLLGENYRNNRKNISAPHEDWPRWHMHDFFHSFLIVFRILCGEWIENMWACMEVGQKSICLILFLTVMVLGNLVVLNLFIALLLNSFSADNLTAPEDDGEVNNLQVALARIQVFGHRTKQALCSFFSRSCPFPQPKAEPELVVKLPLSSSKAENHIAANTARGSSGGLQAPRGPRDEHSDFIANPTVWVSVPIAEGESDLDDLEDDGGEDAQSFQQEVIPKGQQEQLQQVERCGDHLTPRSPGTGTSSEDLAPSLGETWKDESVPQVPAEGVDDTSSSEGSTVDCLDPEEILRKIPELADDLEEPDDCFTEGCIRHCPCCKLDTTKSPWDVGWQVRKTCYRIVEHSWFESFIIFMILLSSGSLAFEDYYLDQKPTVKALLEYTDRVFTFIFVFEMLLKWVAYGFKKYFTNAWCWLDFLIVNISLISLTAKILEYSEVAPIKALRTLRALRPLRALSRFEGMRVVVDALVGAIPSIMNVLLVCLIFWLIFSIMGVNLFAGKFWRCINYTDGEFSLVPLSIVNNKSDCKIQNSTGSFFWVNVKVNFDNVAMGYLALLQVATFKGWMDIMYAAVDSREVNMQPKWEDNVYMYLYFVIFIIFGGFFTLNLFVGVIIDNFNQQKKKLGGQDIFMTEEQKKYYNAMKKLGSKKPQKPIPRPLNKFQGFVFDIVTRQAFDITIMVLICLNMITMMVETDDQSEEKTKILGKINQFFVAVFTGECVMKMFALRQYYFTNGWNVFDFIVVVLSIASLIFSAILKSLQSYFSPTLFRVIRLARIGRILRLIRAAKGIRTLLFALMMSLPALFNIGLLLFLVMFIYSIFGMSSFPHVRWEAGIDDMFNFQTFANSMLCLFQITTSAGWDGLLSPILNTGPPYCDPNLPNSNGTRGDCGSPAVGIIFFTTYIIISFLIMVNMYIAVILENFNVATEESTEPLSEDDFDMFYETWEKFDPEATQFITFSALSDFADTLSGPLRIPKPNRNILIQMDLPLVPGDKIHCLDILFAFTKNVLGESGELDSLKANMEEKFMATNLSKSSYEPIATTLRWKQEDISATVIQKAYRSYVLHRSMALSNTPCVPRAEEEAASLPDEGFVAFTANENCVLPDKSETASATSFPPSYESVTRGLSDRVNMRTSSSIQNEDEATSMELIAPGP

Row | Structure (SMILES) | inhibition at 0.01 µM | inhibition at 0.001 µM
1 | COc1c([C@@H]2C[C@](C)(C(F)(F)F)S[C@H]2C(=O)Nc2ccc3c(c2)S(=O)(=O)NC3=O)ccc(F)c1F [a-36-A, (2R,3S,5R)-3-(3,4-difluoro-2-methoxyphenyl)-N-(1,1-dioxide-3-oxo-2,3-dihydrobenzo[d]isothiazol-6-yl)-5-methyl-5-(trifluoromethyl)tetrahydrothiophene-2-carboxamide] | 83.7% | –
2 | COc1c(C2CC(C)(C(F)(F)F)SC2C(=O)Nc2ccnc(NO)c2)ccc(F)c1F (stereo not drawn) [a-16, (4-(3-(3,4-difluoro-2-methoxyphenyl)-5-methyl-5-(trifluoromethyl)tetrahydrothiophene-2-carboxamido)-2-hydroxylamine)pyridine] | 92.3% | –
3 | COc1c(C2CC(C)(C(F)(F)F)SC2C(=O)Nc2conc2C)ccc(F)c1F (stereo not drawn) [Compound 197, 3-(3,4-difluoro-2-methoxyphenyl)-5-methyl-N-(3-methylisoxazol-4-yl)-5-(trifluoromethyl)tetrahydrothiophene-2-carboxamide] | 91.1% | –
4 | COc1c([C@@H]2C[C@](C)(C(F)(F)F)S[C@H]2C(=O)Nc2ccc3nonc3c2)ccc(F)c1F [Compound 248-A, (2R,3S,5R)-N-(benzo[c][1,2,5]oxadiazol-5-yl)-3-(3,4-difluoro-2-methoxyphenyl)-5-methyl-5-(trifluoromethyl)tetrahydrothiophene-2-carboxamide] | – | 72.6%
5 | COc1c(C2CC(C)(C(F)(F)F)SC2C(=O)Nc2ccc3nnnn3c2)ccc(F)c1F (stereo not drawn) [Compound 202, 3-(3,4-difluoro-2-methoxyphenyl)-5-methyl-N-(tetrazolo[1,5-a]pyridin-6-yl)-5-(trifluoromethyl)tetrahydrothiophene-2-carboxamide] | – | 81%
6 | COc1c([C@@H]2C[C@](C)(C(F)(F)F)S[C@H]2C(=O)Nc2ccc3c(c2)B(O)NC3=O)ccc(F)c1F [Compound a-2, (2R,3S,5R)-3-(3,4-difluoro-2-methoxyphenyl)-N-(1-hydroxy-3-oxo-2,3-dihydro-1H-benzo[c][1,2]azaborol-6-yl)-5-methyl-5-(trifluoromethyl)tetrahydrothiophene-2-carboxamide] | – | 83.9%
7 | COc1c([C@@H]2C[C@](C)(C(F)(F)F)S[C@H]2C(=O)Nc2ccc(N)c(S(N)(=O)=O)c2)ccc(F)c1F [Compound 249-A, (2R,3S,5R)-N-(4-amino-3-sulfamoylphenyl)-3-(3,4-difluoro-2-methoxyphenyl)-5-methyl-5-(trifluoromethyl)tetrahydrothiophene-2-carboxamide] | – | 81.6%
8 | COc1c(C2CC(C)(C(F)(F)F)SC2C(=O)Nc2cn(C(F)F)nc2C)ccc(F)c1F (stereo not drawn) [Compound 199, (4-(3-(3,4-difluoro-2-methoxyphenyl)-5-methyl-5-(trifluoromethyl)tetrahydrothiophene-2-carboxamido)-1-difluoromethyl-3-methyl)pyrazole] | 89.4% | –
9 | COc1c([C@@H]2C[C@](C)(C(F)(F)F)S[C@H]2C(=O)Nc2cccc(NS(N)(=O)=O)c2)ccc(F)c1F [a-18-A, (2R,3S,5R)-3-(3,4-difluoro-2-methoxyphenyl)-5-methyl-N-(3-(sulfamoylamino)phenyl)-5-(trifluoromethyl)tetrahydrothiophene-2-carboxamide] | 86.3% | –
10 | COc1c([C@@H]2C[C@](C)(C(F)(F)F)S[C@H]2C(=O)Nc2cn(S(=O)(=O)C3CC3)nc2C)ccc(F)c1F [a-21-A, (2R,3S,5R)-N-(1-(cyclopropylsulfonyl)-3-methyl-1H-pyrazol-4-yl)-3-(3,4-difluoro-2-methoxyphenyl)-5-methyl-5-(trifluoromethyl)tetrahydrothiophene-2-carboxamide] | – | 84.6%
11 | COc1c(C2CC(C)(C(F)(F)F)SC2C(=O)Nc2ccc3c(c2)COB3O)ccc(F)c1F (stereo not drawn) [Compound 219, 3-(3,4-difluoro-2-methoxyphenyl)-N-(1-hydroxy-1,3-dihydrobenzo[c][1,2]oxaborol-5-yl)-5-methyl-5-(trifluoromethyl)tetrahydrothiophene-2-carboxamide] | 88% | –

Next, values leading:

Row | inhibition at 0.01 µM | inhibition at 0.001 µM | Structure (SMILES)
12 | 80.6% | – | COc1c([C@@H]2C[C@](C)(C(F)(F)F)S[C@H]2C(=O)Nc2cccc(C3N=N3)c2)ccc(F)c1F [a-41-A, (2R,3S,5R)-N-(3-(3H-diazirin-3-yl)phenyl)-3-(3,4-difluoro-2-methoxyphenyl)-5-methyl-5-(trifluoromethyl)tetrahydrothiophene-2-carboxamide]
13 | 95.4% | – | CNS(=O)(=O)c1cccc(NC(=O)[C@@H]2S[C@@](C)(C(F)(F)F)C[C@H]2c2ccc(F)c(F)c2OC)c1 [Compound 241-A, (2R,3S,5R)-3-(3,4-difluoro-2-methoxyphenyl)-5-methyl-N-(3-(N-methylsulfamoyl)phenyl)-5-(trifluoromethyl)tetrahydrothiophene-2-carboxamide]
14 | 96.1% | 78.4% | COc1c(C2CC(C)(C(F)(F)F)SC2C(=O)Nc2ccc([S+](C)[O-])nc2)ccc(F)c1F (stereo not drawn) [Compound 232, 3-(3,4-difluoro-2-methoxyphenyl)-5-methyl-N-(6-(methylsulfinyl)pyridin-3-yl)-5-(trifluoromethyl)tetrahydrothiophene-2-carboxamide]
15 | – | 68.6% | CNC(=O)c1cc(NC(=O)[C@@H]2S[C@@](C)(C(F)(F)F)C[C@H]2c2ccc(F)c(F)c2OC)ccn1 [Compound 253-A, 4-((2R,3S,5R)-3-(3,4-difluoro-2-methoxyphenyl)-5-methyl-5-(trifluoromethyl)tetrahydrothiophene-2-carboxamido)-N-methylpicolinamide]
16 | 98.3% | – | COc1c([C@@H]2C[C@](C)(C(F)(F)F)S[C@H]2C(=O)Nc2ccc(F)c(C(N)=O)c2)ccc(F)c1F [Compound 146-A, (2R,3S,5R)-N-(3-carbamoyl-4-fluorophenyl)-3-(3,4-difluoro-2-methoxyphenyl)-5-methyl-5-(trifluoromethyl)tetrahydrothiophene-2-carboxamide]
17 | – | 87.8% | COc1c([C@@H]2C[C@](C)(C(F)(F)F)S[C@H]2C(=O)Nc2ccnc(C(F)F)c2)ccc(F)c1F [Compound 244-A, (2R,3S,5R)-3-(3,4-difluoro-2-methoxyphenyl)-N-(2-(difluoromethyl)pyridin-4-yl)-5-methyl-5-(trifluoromethyl)tetrahydrothiophene-2-carboxamide]
18 | – | 85.5% | COc1c([C@@H]2C[C@](C)(C(F)(F)F)S[C@H]2C(=O)Nc2ccc([S+](C)[O-])nc2)ccc(F)c1F (stereo partly drawn) [Compound 238-A, (2R,3S,5R)-3-(3,4-difluoro-2-methoxyphenyl)-5-methyl-N-(6-(methylsulfinyl)pyridin-3-yl)-5-(trifluoromethyl)tetrahydrothiophene-2-carboxamide]
19 | 88.8% | – | COc1c([C@@H]2C[C@](C)(C(F)(F)F)S[C@H]2C(=O)Nc2ccnc(OCC(O)CO)c2)ccc(F)c1F (stereo partly drawn) [Compound 191-A, (2R,3S,5R)-3-(3,4-difluoro-2-methoxyphenyl)-N-(2-(2,3-dihydroxypropoxy)pyridin-4-yl)-5-methyl-5-(trifluoromethyl)tetrahydrothiophene-2-carboxamide]
20 | 95.6% | – | COc1c(C2CC(C)(C(F)(F)F)SC2C(=O)Nc2ccc(B(O)O)c(F)c2)ccc(F)c1F (stereo not drawn) [Compound 88, (4-(3-(3,4-difluoro-2-methoxyphenyl)-5-methyl-5-(trifluoromethyl)tetrahydrothiophene-2-carboxamido)-2-fluorophenyl)boronic acid]
